Organism: Rattus norvegicus
Test: Open TG-GATES - Regimen: Daily Repeat
Assay type: toxicity, organism-based, Sprague-Dawley
Set-up: regimen Daily Repeat, gender Male, age 6 weeks
Details: in vivo, po, route gavage; for APTT / Bas / Eos / Fbg / Hb / Ht / Lym / MCH / MCHC / MCV / Mono / Neu / PT / Plat / RBC / Ret / WBC: tissue Blood; for KIDNEY_L / KIDNEY_R / KIDNEY_TOTAL: tissue Kidney; for LIVER: tissue Liver
[1] = 0 mg/kg, […], tissue Plasma, dose level Control, time 28 day
[2] = 100 mg/kg, 72 h, dose level Low, time 3 day
[3] = 100 mg/kg, 72 h, tissue Plasma, dose level Low, time 3 day
[4] = 100 mg/kg, […], dose level Low, time 7 day
[5] = 100 mg/kg, […], dose level Low, time 14 day
[6] = 100 mg/kg, […], dose level Low, time 28 day
[7] = 100 mg/kg, […], tissue Plasma, dose level Low, time 7 day
[8] = 100 mg/kg, […], tissue Plasma, dose level Low, time 14 day
[9] = 100 mg/kg, […], tissue Plasma, dose level Low, time 28 day

Structure (SMILES): O=C(O)c1ccccc1Nc1ccccc1 [FENAMIC ACID]
- RALB [1]: 2.8 g/dL
- TBIL [1]: 0.05 mg/dL
- TC [1]: 64.8 mg/dL
- TG [1]: 134.8 mg/dL
- TP [1]: 6.2 g/dL
- gamma-GTP [1]: 1 IU/L
- TERMINAL_BW [2]: 236.5 g
- APTT [2]: 15.6 s
- Bas [2]: 0.6%
- Eos [2]: 1%
- Fbg [2]: 286.4 mg/dL
- Hb [2]: 13.5 g/dL
- Ht [2]: 40.5%
- Lym [2]: 79.6%
- MCH [2]: 20.9 pg
- MCHC [2]: 33.4%
- MCV [2]: 62.6 fL
- Mono [2]: 2%
- Neu [2]: 16.8%
- PT [2]: 14.2 s
- Plat [2]: 122.4 x10_4/uL
- RBC [2]: 647.6 x10_4/ul
- Ret [2]: 7.2%
- WBC [2]: 82.6 x10_2/uL
- KIDNEY_L [2]: 1 g
- KIDNEY_R [2]: 1 g
- KIDNEY_TOTAL [2]: 2 g
- LIVER [2]: 11.2 g
- A/G [3]: 0.9
- ALP [3]: 1990.6 IU/L
- ALT [3]: 37.6 IU/L
- AST [3]: 64.2 IU/L
- BUN [3]: 13.8 mg/dL
- CRE [3]: 0.2 mg/dL
- Ca [3]: 11.7 mg/dL
- Cl [3]: 106.2 meq/L
- GLC [3]: 184.4 mg/dL
- IP [3]: 6.9 mg/dL
- K [3]: 4.2 meq/L
- LDH [3]: 82 IU/L
- Na [3]: 143.6 meq/L
- PL [3]: 144.2 mg/dL
- RALB [3]: 2.7 g/dL
- TC [3]: 75.6 mg/dL
- TG [3]: 72.2 mg/dL
- TP [3]: 5.6 g/dL
- gamma-GTP [3]: 1.2 IU/L
- TERMINAL_BW [4]: 277.8 g
- TERMINAL_BW [5]: 337.7 g
- TERMINAL_BW [6]: 419.6 g
- APTT [4]: 16 s
- Bas [4]: 0.6%
- Eos [4]: 1%
- Fbg [4]: 288.2 mg/dL
- Hb [4]: 13.4 g/dL
- Ht [4]: 39.6%
- Lym [4]: 73%
- MCH [4]: 20.9 pg
- MCHC [4]: 33.9%
- MCV [4]: 61.5 fL
- Mono [4]: 2.6%
- Neu [4]: 22.8%
- PT [4]: 13.9 s
- Plat [4]: 114.4 x10_4/uL
- RBC [4]: 642.8 x10_4/ul
- Ret [4]: 5.7%
- WBC [4]: 82.6 x10_2/uL
- APTT [5]: 16.8 s
- Bas [5]: 0.8%
- Eos [5]: 1%
- Fbg [5]: 308.8 mg/dL
- Hb [5]: 14.4 g/dL
- Ht [5]: 41.6%
- Lym [5]: 75.4%
- MCH [5]: 20.8 pg
- MCHC [5]: 34.5%
- MCV [5]: 60.3 fL
- Mono [5]: 2.4%
- Neu [5]: 20.2%
- PT [5]: 13.7 s
- Plat [5]: 118.3 x10_4/uL
- RBC [5]: 689.4 x10_4/ul
- Ret [5]: 4.5%
- WBC [5]: 82.2 x10_2/uL
- APTT [6]: 17.2 s
- Bas [6]: 0.2%
- Eos [6]: 1%
- Fbg [6]: 305.2 mg/dL
- Hb [6]: 15.1 g/dL
- Ht [6]: 43.9%
- Lym [6]: 78.2%
- MCH [6]: 19.4 pg
- MCHC [6]: 34.5%
- MCV [6]: 56.2 fL
- Mono [6]: 2%
- Neu [6]: 18%
- PT [6]: 14.3 s
- Plat [6]: 103.7 x10_4/uL
- RBC [6]: 780.8 x10_4/ul
- Ret [6]: 2.6%
- WBC [6]: 94 x10_2/uL
- KIDNEY_L [4]: 1.2 g
- KIDNEY_R [4]: 1.2 g
- KIDNEY_TOTAL [4]: 2.3 g
- KIDNEY_L [5]: 1.3 g
- KIDNEY_R [5]: 1.2 g
- KIDNEY_TOTAL [5]: 2.5 g
- KIDNEY_L [6]: 1.5 g
- KIDNEY_R [6]: 1.5 g
- KIDNEY_TOTAL [6]: 3 g
- LIVER [4]: 13 g
- LIVER [5]: 14.7 g
- LIVER [6]: 16.7 g
- A/G [7]: 0.9
- ALP [7]: 1790.8 IU/L
- ALT [7]: 37 IU/L
- AST [7]: 63.4 IU/L
- BUN [7]: 13.4 mg/dL
- CRE [7]: 0.2 mg/dL
- Ca [7]: 11.4 mg/dL
- Cl [7]: 105.6 meq/L
- GLC [7]: 182 mg/dL
- IP [7]: 6.8 mg/dL
- K [7]: 4.3 meq/L
- LDH [7]: 94.6 IU/L
- Na [7]: 142.8 meq/L
- PL [7]: 160.6 mg/dL
- RALB [7]: 2.7 g/dL
- TC [7]: 80.2 mg/dL
- TG [7]: 136.8 mg/dL
- TP [7]: 5.8 g/dL
- gamma-GTP [7]: 1 IU/L
- A/G [8]: 0.9
- ALP [8]: 1703.6 IU/L
- ALT [8]: 35.6 IU/L
- AST [8]: 63.6 IU/L
- BUN [8]: 14.2 mg/dL
- CRE [8]: 0.3 mg/dL
- Ca [8]: 11.1 mg/dL
- Cl [8]: 105.2 meq/L
- GLC [8]: 179.4 mg/dL
- IP [8]: 7 mg/dL
- K [8]: 4.2 meq/L
- LDH [8]: 95 IU/L
- Na [8]: 143.4 meq/L
- PL [8]: 158.4 mg/dL
- RALB [8]: 2.7 g/dL
- TC [8]: 80.8 mg/dL
- TG [8]: 109.2 mg/dL
- TP [8]: 5.8 g/dL
- gamma-GTP [8]: 1 IU/L
- A/G [9]: 0.8
- ALP [9]: 1187.4 IU/L
- ALT [9]: 33.4 IU/L
- AST [9]: 59.2 IU/L
- BUN [9]: 14.2 mg/dL
- CRE [9]: 0.3 mg/dL
- Ca [9]: 11 mg/dL
- Cl [9]: 105.6 meq/L
- GLC [9]: 179.6 mg/dL
- IP [9]: 6.5 mg/dL
- K [9]: 3.9 meq/L
- LDH [9]: 87 IU/L
- Na [9]: 144.6 meq/L
- PL [9]: 154.2 mg/dL
- RALB [9]: 2.8 g/dL
